Measured values from patent US10131652B2, “Pyrimidinyloxy benzene derivatives as herbicides” (E. I. DU PONT DE NEMOURS AND COMPANY, priority 2014, dated 2018).
Like-named read-outs stand apart in the source and are kept apart here.

Key:
Assay in all cases: Test D pre-/postemergence plant response
Assay type in all cases: in vivo
[1] = test system: Italian ryegrass (Lolium multiflorum); conditions: Lolium multiflorum; for pest or weed control at 8 g/ha: 8 g ai/ha; for pest or weed control at 16 g/ha: 16 g ai/ha; for pest or weed control at 31 g/ha: 31 g ai/ha; for pest or weed control at 62 g/ha: 62 g ai/ha
How it was run: (§1)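 0 = no effect, 100 = complete control: plants were scored this way by visual comparison with controls 13 to 15 days post-treatment. Application was preemergence to sown loam/sand pots or postemergence to 2–18 cm seedlings in peat-based mix.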

[2] = test system: barnyardgrass (Echinochloa crus-galli); conditions: Echinochloa crus-galli; for pest or weed control at 8 g/ha: 8 g ai/ha; for pest or weed control at 16 g/ha: 16 g ai/ha; for pest or weed control at 31 g/ha: 31 g ai/ha; for pest or weed control at 62 g/ha: 62 g ai/ha
How it was run: as §1

[3] = test system: blackgrass (Alopecurus myosuroides); conditions: Alopecurus myosuroides; for pest or weed control at 8 g/ha: 8 g ai/ha; for pest or weed control at 16 g/ha: 16 g ai/ha; for pest or weed control at 31 g/ha: 31 g ai/ha; for pest or weed control at 62 g/ha: 62 g ai/ha
How it was run: as §1

[4] = test system: corn (Zea mays); conditions: Zea mays; for Corn plant response rating (crop injury, 0 = no effect, 100 = complete kill) at 62 g/ha: 62 g ai/ha
How it was run: as §1

[5] = test system: galium (catchweed bedstraw, Galium aparine); conditions: Galium; for pest or weed control at 8 g/ha: 8 g ai/ha; for pest or weed control at 16 g/ha: 16 g ai/ha; for pest or weed control at 31 g/ha: 31 g ai/ha; for pest or weed control at 62 g/ha: 62 g ai/ha
How it was run: as §1

[6] = test system: giant foxtail (Setaria faberii); conditions: Setaria faberi; for pest or weed control at 8 g/ha: 8 g ai/ha; for pest or weed control at 16 g/ha: 16 g ai/ha; for pest or weed control at 31 g/ha: 31 g ai/ha; for pest or weed control at 62 g/ha: 62 g ai/ha
How it was run: as §1

[7] = test system: johnsongrass (Sorghum halepense); conditions: Sorghum halepense; for pest or weed control at 8 g/ha: 8 g ai/ha; for pest or weed control at 16 g/ha: 16 g ai/ha; for pest or weed control at 31 g/ha: 31 g ai/ha; for pest or weed control at 62 g/ha: 62 g ai/ha
How it was run: as §1

[8] = test system: lambsquarters (Chenopodium album); conditions: Chenopodium album; for pest or weed control at 8 g/ha: 8 g ai/ha; for pest or weed control at 16 g/ha: 16 g ai/ha; for pest or weed control at 31 g/ha: 31 g ai/ha; for pest or weed control at 62 g/ha: 62 g ai/ha
How it was run: as §1

[9] = test system: large (Lg) crabgrass (Digitaria sanguinalis); conditions: Digitaria sanguinalis; for pest or weed control at 8 g/ha: 8 g ai/ha; for pest or weed control at 16 g/ha: 16 g ai/ha; for pest or weed control at 31 g/ha: 31 g ai/ha; for pest or weed control at 62 g/ha: 62 g ai/ha
How it was run: as §1

[10] = post-emergence, Postemergence, scale 0 to 100 (0 no effect, 100 complete control), read-out: Ryegrass, Italian plant response rating
[11] = pre-emergence, Preemergence, scale 0 to 100 (0 no effect, 100 complete control), read-out: Plant response rating, Ryegrass, Italian
[12] = post-emergence, Postemergence, scale 0 to 100 (0 no effect, 100 complete control), read-out: Barnyardgrass plant response rating
[13] = pre-emergence, Preemergence, scale 0 to 100 (0 no effect, 100 complete control), read-out: Plant response rating, Barnyardgrass
[14] = post-emergence, Postemergence, scale 0 to 100 (0 no effect, 100 complete control), read-out: Blackgrass plant response rating
[15] = pre-emergence, Preemergence, scale 0 to 100 (0 no effect, 100 complete control), read-out: Plant response rating, Blackgrass
[16] = post-emergence, Postemergence, scale 0 to 100 (0 no effect, 100 complete control), read-out: Galium plant response rating
[17] = pre-emergence, Preemergence, scale 0 to 100 (0 no effect, 100 complete control), read-out: Plant response rating, Galium
[18] = post-emergence, Postemergence, scale 0 to 100 (0 no effect, 100 complete control), read-out: Foxtail, Giant plant response rating
[19] = pre-emergence, Preemergence, scale 0 to 100 (0 no effect, 100 complete control), read-out: Plant response rating, Foxtail, Giant
[20] = post-emergence, Postemergence, scale 0 to 100 (0 no effect, 100 complete control), read-out: Johnsongrass plant response rating
[21] = pre-emergence, Preemergence, scale 0 to 100 (0 no effect, 100 complete control), read-out: Plant response rating, Johnsongrass
[22] = post-emergence, Postemergence, scale 0 to 100 (0 no effect, 100 complete control), read-out: Lambsquarters plant response rating
[23] = pre-emergence, Preemergence, scale 0 to 100 (0 no effect, 100 complete control), read-out: Plant response rating, Lambsquarters
[24] = post-emergence, Postemergence, scale 0 to 100 (0 no effect, 100 complete control), read-out: Crabgrass, Large plant response rating
[25] = pre-emergence, Preemergence, scale 0 to 100 (0 no effect, 100 complete control), read-out: Plant response rating, Crabgrass, Large

FC(F)c1cc(-c2ccccc2Oc2ncc(Cl)cn2)no1 [Compound 35, 5-chloro-2-[2-[5-(difluoromethyl)-3-isoxazolyl]phenoxy]pyrimidine]
pest or weed control at 8 g/ha ([1]; post-emergence, Postemergence, read-out: Plant response rating (scale 0 to 100), Ryegrass, Italian): 0% | pest or weed control at 16 g/ha [1, 10]: 0% | pest or weed control at 31 g/ha [1, 10]: 5% | pest or weed control at 62 g/ha ([1]; post-emergence, Postemergence, scale 0 to 100, 0 no effect, 100 complete control, read-out: Plant response rating, Ryegrass, Italian): 20% | pest or weed control at 8 g/ha [1, 11]: 0% | pest or weed control at 16 g/ha [1, 11]: 0% | pest or weed control at 31 g/ha [1, 11]: 30% | pest or weed control at 62 g/ha [1, 11]: 80% | pest or weed control at 8 g/ha ([2]; post-emergence, Postemergence, read-out: Plant response rating (scale 0 to 100), Barnyardgrass): 10% | pest or weed control at 16 g/ha [2, 12]: 15% | pest or weed control at 31 g/ha [2, 12]: 20% | pest or weed control at 62 g/ha ([2]; post-emergence, Postemergence, scale 0 to 100, 0 no effect, 100 complete control, read-out: Plant response rating, Barnyardgrass): 20% | pest or weed control at 62 g/ha ([2]; pre-emergence, Preemergence, read-out: Plant response rating (scale 0 to 100), Barnyardgrass): 100% | pest or weed control at 8 g/ha [2, 13]: 5% | pest or weed control at 16 g/ha [2, 13]: 65% | pest or weed control at 31 g/ha [2, 13]: 75% | pest or weed control at 8 g/ha ([3]; post-emergence, Postemergence, read-out: Plant response rating (scale 0 to 100), Blackgrass): 30% | pest or weed control at 16 g/ha [3, 14]: 35% | pest or weed control at 31 g/ha [3, 14]: 40% | pest or weed control at 62 g/ha ([3]; post-emergence, Postemergence, scale 0 to 100, 0 no effect, 100 complete control, read-out: Plant response rating, Blackgrass): 60% | pest or weed control at 8 g/ha [3, 15]: 70% | pest or weed control at 16 g/ha [3, 15]: 70% | pest or weed control at 31 g/ha [3, 15]: 90% | pest or weed control at 62 g/ha [3, 15]: 90% | plant injury at 8 g/ha ([4]; post-emergence, Postemergence, 8 g ai/ha, read-out: Plant response rating (scale 0 to 100), Corn): 5% | plant injury at 16 g/ha ([4]; post-emergence, Postemergence, 16 g ai/ha, scale 0 to 100 (0 no effect, 100 complete control), read-out: Corn plant response rating): 5% | plant injury at 31 g/ha ([4]; post-emergence, Postemergence, 31 g ai/ha, scale 0 to 100 (0 no effect, 100 complete control), read-out: Corn plant response rating): 10% | Corn plant response rating (crop injury, 0 = no effect, 100 = complete kill) at 62 g/ha ([4]; post-emergence, Postemergence, scale 0 to 100, 0 no effect, 100 complete control): 20% | Corn plant response rating (crop injury, 0 = no effect, 100 = complete kill) at 8 g/ha ([4]; pre-emergence, Preemergence, 8 g ai/ha, scale 0 to 100 (0 no effect, 100 complete control)): 0% | Corn plant response rating (crop injury, 0 = no effect, 100 = complete kill) at 16 g/ha ([4]; pre-emergence, Preemergence, 16 g ai/ha, scale 0 to 100 (0 no effect, 100 complete control)): 0% | Corn plant response rating (crop injury, 0 = no effect, 100 = complete kill) at 31 g/ha ([4]; pre-emergence, Preemergence, 31 g ai/ha, scale 0 to 100 (0 no effect, 100 complete control)): 0% | Corn plant response rating (crop injury, 0 = no effect, 100 = complete kill) at 62 g/ha ([4]; pre-emergence, Preemergence, scale 0 to 100 (0 no effect, 100 complete control)): 15% | pest or weed control at 8 g/ha ([5]; post-emergence, Postemergence, read-out: Plant response rating (scale 0 to 100), Galium): 80% | pest or weed control at 16 g/ha [5, 16]: 70% | pest or weed control at 31 g/ha [5, 16]: 75% | pest or weed control at 62 g/ha ([5]; post-emergence, Postemergence, scale 0 to 100, 0 no effect, 100 complete control, read-out: Plant response rating, Galium): 85% | pest or weed control at 8 g/ha [5, 17]: 85% | pest or weed control at 16 g/ha [5, 17]: 100% | pest or weed control at 31 g/ha [5, 17]: 100% | pest or weed control at 62 g/ha [5, 17]: 100% | pest or weed control at 8 g/ha ([6]; post-emergence, Postemergence, read-out: Plant response rating (scale 0 to 100), Foxtail, Giant): 5% | pest or weed control at 16 g/ha [6, 18]: 5% | pest or weed control at 31 g/ha [6, 18]: 10% | pest or weed control at 62 g/ha ([6]; post-emergence, Postemergence, scale 0 to 100, 0 no effect, 100 complete control, read-out: Plant response rating, Foxtail, Giant): 15% | pest or weed control at 8 g/ha [6, 19]: 70% | pest or weed control at 16 g/ha [6, 19]: 90% | pest or weed control at 31 g/ha [6, 19]: 98% | pest or weed control at 62 g/ha [6, 19]: 100% | pest or weed control at 8 g/ha ([7]; post-emergence, Postemergence, read-out: Plant response rating (scale 0 to 100), Johnsongrass): 0% | pest or weed control at 16 g/ha [7, 20]: 10% | pest or weed control at 31 g/ha [7, 20]: 5% | pest or weed control at 62 g/ha ([7]; post-emergence, Postemergence, scale 0 to 100, 0 no effect, 100 complete control, read-out: Plant response rating, Johnsongrass): 35% | pest or weed control at 8 g/ha [7, 21]: 0% | pest or weed control at 16 g/ha [7, 21]: 10% | pest or weed control at 31 g/ha [7, 21]: 60% | pest or weed control at 62 g/ha [7, 21]: 98% | pest or weed control at 8 g/ha ([8]; post-emergence, Postemergence, read-out: Plant response rating (scale 0 to 100), Lambsquarters): 75% | pest or weed control at 16 g/ha [8, 22]: 80% | pest or weed control at 31 g/ha [8, 22]: 85% | pest or weed control at 62 g/ha ([8]; post-emergence, Postemergence, scale 0 to 100, 0 no effect, 100 complete control, read-out: Plant response rating, Lambsquarters): 95% | pest or weed control at 8 g/ha [8, 23]: 100% | pest or weed control at 16 g/ha [8, 23]: 100% | pest or weed control at 31 g/ha [8, 23]: 98% | pest or weed control at 62 g/ha [8, 23]: 100% | pest or weed control at 8 g/ha ([9]; post-emergence, Postemergence, read-out: Plant response rating (scale 0 to 100), Crabgrass, Large): 5% | pest or weed control at 16 g/ha [9, 24]: 10% | pest or weed control at 31 g/ha [9, 24]: 10% | pest or weed control at 62 g/ha ([9]; post-emergence, Postemergence, scale 0 to 100, 0 no effect, 100 complete control, read-out: Plant response rating, Crabgrass, Large): 10% | pest or weed control at 8 g/ha [9, 25]: 80% | pest or weed control at 16 g/ha [9, 25]: 100% | pest or weed control at 31 g/ha [9, 25]: 100% | pest or weed control at 62 g/ha [9, 25]: 100%
